Drawing on PubChem BioAssay AID1259407 (Chemical Carcinogenesis Research Information System (CCRIS), 2018), this text covers mutagenic call for 10 molecules.

For this series, the system named is CCRIS mutagenicity, Ames/micronucleus/aberration tests. Nature of the series: CCRIS mutagenicity studies.
[1] abbreviates: Test System: AMES SALMONELLA TYPHIMURIUM, Strain/Indicator: TA98, Metabolic Activation: HAMSTER, LIVER, S-9, AROCLOR 1254 (10%), Method: PREINCUBATION
Where [2] appears, read: Test System: AMES SALMONELLA TYPHIMURIUM, Strain/Indicator: TA98, Metabolic Activation: NONE, Method: PREINCUBATION
The mark [3] stands for this setting: Test System: AMES SALMONELLA TYPHIMURIUM, Strain/Indicator: TA98, Metabolic Activation: RAT, LIVER, S-9, AROCLOR 1254 (10%), Method: PREINCUBATION
[4] abbreviates: Test System: AMES SALMONELLA TYPHIMURIUM, Strain/Indicator: TA100, Metabolic Activation: HAMSTER, LIVER, S-9, AROCLOR 1254 (10%), Method: PREINCUBATION
[5] abbreviates: Test System: AMES SALMONELLA TYPHIMURIUM, Strain/Indicator: TA100, Metabolic Activation: NONE, Method: PREINCUBATION
Setting [6] is: Test System: AMES SALMONELLA TYPHIMURIUM, Strain/Indicator: TA100, Metabolic Activation: RAT, LIVER, S-9, AROCLOR 1254 (10%), Method: PREINCUBATION
Where [7] appears, read: Test System: AMES SALMONELLA TYPHIMURIUM, Strain/Indicator: TA1535, Metabolic Activation: HAMSTER, LIVER, S-9, AROCLOR 1254 (10%), Method: PREINCUBATION
[8] abbreviates: Test System: AMES SALMONELLA TYPHIMURIUM, Strain/Indicator: TA1535, Metabolic Activation: NONE, Method: PREINCUBATION
Setting [9] is: Test System: AMES SALMONELLA TYPHIMURIUM, Strain/Indicator: TA1535, Metabolic Activation: RAT, LIVER, S-9, AROCLOR 1254 (10%), Method: PREINCUBATION
[10] abbreviates: Test System: AMES SALMONELLA TYPHIMURIUM, Strain/Indicator: TA1537, Metabolic Activation: HAMSTER, LIVER, S-9, AROCLOR 1254 (10%), Method: PREINCUBATION
[11] abbreviates: Test System: AMES SALMONELLA TYPHIMURIUM, Strain/Indicator: TA1537, Metabolic Activation: NONE, Method: PREINCUBATION
The mark [12] stands for this setting: Test System: AMES SALMONELLA TYPHIMURIUM, Strain/Indicator: TA1537, Metabolic Activation: RAT, LIVER, S-9, AROCLOR 1254 (10%), Method: PREINCUBATION
Setting [13] is: Test System: AMES SALMONELLA TYPHIMURIUM, Strain/Indicator: TA98, Metabolic Activation: NONE, Method: STANDARD PLATE.
[14] abbreviates: Test System: AMES SALMONELLA TYPHIMURIUM, Strain/Indicator: TA98, Metabolic Activation: RAT, LIVER, S-9, AROCLOR 1254, Method: STANDARD PLATE.
Setting [15] is: Test System: AMES SALMONELLA TYPHIMURIUM, Strain/Indicator: TA100, Metabolic Activation: NONE, Method: STANDARD PLATE.
Setting [16] is: Test System: AMES SALMONELLA TYPHIMURIUM, Strain/Indicator: TA100, Metabolic Activation: RAT, LIVER, S-9, AROCLOR 1254, Method: STANDARD PLATE.
[17] abbreviates: Test System: AMES SALMONELLA TYPHIMURIUM, Strain/Indicator: TA1538, Metabolic Activation: NONE, Method: PREINCUBATION
The mark [18] stands for this setting: Test System: AMES SALMONELLA TYPHIMURIUM, Strain/Indicator: TA1538, Metabolic Activation: NONE, Method: STANDARD PLATE.

The source made the active and inactive calls. No rule for the calls is given here.

In the case of `CCN1CCOCC1`, the mutagenic call is “inactive; negative” under setting [1]; “inactive; negative” under setting [2]; “inactive; negative” under setting [3]; “inactive; negative” under setting [4]; “inactive; negative” under setting [5]; “inactive; negative” under setting [6]. In addition, the mutagenic call by setting is: (Test System: AMES SALMONELLA TYPHIMURIUM, Strain/Indicator: TA1535, Metabolic Activation: HAMSTER, LIVER, S-9, AROCLOR 1254 (5 OR 30%), Method: PREINCUBATION) “active; positive”; under setting [7], “active; positive”; under setting [8], “inactive; negative”; (Test System: AMES SALMONELLA TYPHIMURIUM, Strain/Indicator: TA1535, Metabolic Activation: RAT, LIVER, S-9, AROCLOR 1254 (5 OR 30%), Method: PREINCUBATION) “active; positive”; under setting [9], “active; positive”; under setting [10], “inactive; negative”. Further, the mutagenic call is, setting by setting: under setting [11], “inactive; negative”; under setting [12], “inactive; negative”.
`Oc1cc(Cl)cc(Cl)c1O`: the mutagenic call is, setting by setting: (Test System: CHINESE HAMSTER V-79, Strain/Indicator: V-79/6-THIOGUANINE, Metabolic Activation: CELL MEDIATED, Method: STANDARD PLATE) “inactive; negative”; (Test System: CHINESE HAMSTER V-79, Strain/Indicator: V-79/6-THIOGUANINE, Metabolic Activation: NONE, Method: STANDARD PLATE) “inactive; negative”.
Consider `O=c1cn[nH]c(=O)[nH]1`, for which the mutagenic call was “inactive; negative” (Test System: AMES SALMONELLA TYPHIMURIUM, Strain/Indicator: TA98, Metabolic Activation: MAIZE SEEDLING, S-14, Method: PREINCUBATION); “inactive; negative” (Test System: AMES SALMONELLA TYPHIMURIUM, Strain/Indicator: TA98, Metabolic Activation: MOUSE, LIVER, S-9, Method: PREINCUBATION); “inactive; negative” under setting [2]; “inactive; negative” under setting [13]; “active; positive” under setting [14]; “inactive; negative” (Test System: AMES SALMONELLA TYPHIMURIUM, Strain/Indicator: TA100, Metabolic Activation: MAIZE SEEDLING, S-14, Method: PREINCUBATION). In addition, the mutagenic call (Test System: AMES SALMONELLA TYPHIMURIUM, Strain/Indicator: TA100, Metabolic Activation: MOUSE, LIVER, S-9, Method: PREINCUBATION) was “inactive; negative”; the mutagenic call under setting [5] is “inactive; negative”; the mutagenic call under setting [15] is “inactive; negative”; the mutagenic call under setting [16] was “inactive; negative”; the mutagenic call under setting [8] was “inactive; negative”; the mutagenic call (Test System: AMES SALMONELLA TYPHIMURIUM, Strain/Indicator: TA1535, Metabolic Activation: NONE, Method: STANDARD PLATE) was “inactive; negative”. In addition, the mutagenic call (Test System: AMES SALMONELLA TYPHIMURIUM, Strain/Indicator: TA1535, Metabolic Activation: RAT, LIVER, S-9, AROCLOR 1254, Method: STANDARD PLATE) is “inactive; negative”; the mutagenic call under setting [11] was “inactive; negative”; the mutagenic call (Test System: AMES SALMONELLA TYPHIMURIUM, Strain/Indicator: TA1537, Metabolic Activation: NONE, Method: STANDARD PLATE) was “inactive; negative”; the mutagenic call (Test System: AMES SALMONELLA TYPHIMURIUM, Strain/Indicator: TA1537, Metabolic Activation: RAT, LIVER, S-9, AROCLOR 1254, Method: STANDARD PLATE) is “inactive; negative”; the mutagenic call under setting [17] was “inactive; negative”; the mutagenic call under setting [18] was “inactive; negative”. Further, the mutagenic call (Test System: AMES SALMONELLA TYPHIMURIUM, Strain/Indicator: TA1538, Metabolic Activation: RAT, LIVER, S-9, AROCLOR 1254, Method: STANDARD PLATE) was “active; positive”.
As for `CCCCCCCCCCCCCC(=O)ON(C(=O)CCCCCCCCCCCCC)c1ccc2c(c1)Cc1ccccc1-2`, under “Test System: UDS HUMAN FIBROBLASTS, Strain/Indicator: THY INCORP (NON-S-PHASE), Metabolic Activation: NONE, Method: AUTORADIOGRAPHY”, the mutagenic call was “active; positive”.
As to `CC(=O)O.CC(=O)O.[O]=[U]=[O]`, the mutagenic call (Test System: Chinese hamster ovary cells, Strain/Indicator: EM9 (HPRT)/6-Thioguanine, Metabolic Activation: None) was “active; positive”.
For the molecule `O=C(NCc1ccccc1)C1CO1` (configuration not stated), the mutagenic call reads like this: (Test System: AMES SALMONELLA TYPHIMURIUM, Strain/Indicator: TA100, Metabolic Activation: MOUSE, LIVER, S-9, AROCLOR 1254, Method: STANDARD PLATE) “active; positive”; under setting [15], “active; positive”.
Regarding `COc1cccc2c1C(=O)c1c(O)c3c(c(O)c1C2=O)C[C@@](O)(C(=O)CO)C[C@@H]3O`, the mutagenic call is, setting by setting: under setting [13], “active; positive”; under setting [14], “active; positive”; under setting [15], “active; positive”; under setting [18], “active; positive”.
For `C=C1C(=O)O[C@@H]2[C@H]1CC[C@H](C)[C@@H]1C=CC(=O)[C@@]21C`, the mutagenic call reads like this: under setting [13], “inactive; negative”; under setting [14], “inactive; negative”; under setting [15], “inactive; negative”; under setting [16], “inactive; negative”.
`C=C[Si](OCC)(OCC)OCC`: the mutagenic call is “inactive; negative” under setting [1]; “inactive; negative” under setting [2]; “inactive; negative” under setting [3]; “inactive; negative” under setting [4]; “inactive; negative” under setting [5]; “inactive; negative” under setting [6]. Also, the mutagenic call is “inactive; negative” under setting [7]; “inactive; negative” under setting [8]; “inactive; negative” under setting [9]; “inactive; negative” under setting [10]; “inactive; negative” under setting [11]; “inactive; negative” under setting [12]. For the same molecule, the mutagenic call was “inactive; negative” (Test System: AMES SALMONELLA TYPHIMURIUM, Strain/Indicator: TA1538, Metabolic Activation: HAMSTER, LIVER, S-9, AROCLOR 1254 (10%), Method: PREINCUBATION); “inactive; negative” under setting [17]; “inactive; negative” (Test System: AMES SALMONELLA TYPHIMURIUM, Strain/Indicator: TA1538, Metabolic Activation: RAT, LIVER, S-9, AROCLOR 1254 (10%), Method: PREINCUBATION); “inactive; negative” (Test System: Mouse lymphoma, Strain/Indicator: L5178Y (tk+/tk-), Metabolic Activation: None, Method: Suspension/plate); “inactive; negative” (Test System: Mouse lymphoma, Strain/Indicator: L5178Y (tk+/tk-), Metabolic Activation: Rat, Liver, S-9, Aroclor 1254, Method: Suspension/plate).
For `CC(=O)O[C@H]1[C@@H]2CC(C)(C)CC2=C(C=O)[C@]2(C=O)C[C@]12C`, the mutagenic call is “inactive; negative” under setting [13]; “inactive; negative” under setting [15]; “inactive; negative” (Test System: AMES SALMONELLA TYPHIMURIUM, Strain/Indicator: TA2637, Metabolic Activation: NONE, Method: STANDARD PLATE).
